{"source": "patent US3937838A", "about": "“Orally active bronchospasmolytic compounds and their preparation” (priority 1966, dated 1976)", "key": {"heart rate": {"test_system": "heart rate", "experiment": "Tests on anesthetized cat, heart rate with bronchospasmolytic effect (Example 8b)", "format": "in vivo", "excerpt": "The relative bronchospasmolytic and cardiovascular effects of compounds can be tested in the method of Konzett & Rossler (see Example 5b above). As has already been described, the test animal is force-ventilated and the effect of various compounds in controlling histamine-induced bronchoconstriction, as reflected by overflow of the forced ventilation in excess of lung capacity, is used as a measure of the bronchospasmolytic effect. Concurrently in the same animal, changes in heart rate and arterial mean pressure can be simultaneously recorded.\nIn carrying out this procedure, bronchoconstriction in the test animal is induced by injection of histamine. The ability of KWD2025 and KWD2109 to control the histamine-inducred bronchoconstriction is measured by injecting the test compound 3 minutes before injection of […], and before injection of histamine, the effect of the test compound on the heart rate is recorded."}, "[1]": {"test_system": "bronchospasm induced by histamine aerosol", "experiment": "Protecting effect against histamine aerosol in intact guinea pigs (Example 7c)", "format": "in vivo, guinea pig", "conditions": "for ED50: Cavia porcellus, m ± s.e., read-out: ED50 (protecting 50 per cent of the animals for more than 4 minutes)", "experimental": "The compounds KWD2109 and KWD2025 have been compared in preventing bronchospasm induced by histamine aerosol in guinea pigs.\nThe drug was injected intraperitoneally 15 minutes (Table 2) or administered orally 30 minutes (Table 3) before histamine treatment. The dose of the drugs protecting 50 per cent of the animals for more than 4 minutes is denoted \"ED50\". In untreated animals only 1-2 percent will withstand the histamine aerosol for more than 4 minutes.\nTo study the duration of the effect, 2 mg/kg was administered orally to intact guinea pigs at different time intervals before the histamine treatment. Two series each including eleven groups of six animals was studied. The groups were tested in histamine aerosol 10, 20, 30, 40, 50, 60, 120, 180, 240, 300 and 360 minutes after the administration of the compound. The per cent of animals in each group protected more than 4 minutes and more than 10 minutes was determined."}, "[2]": {"test_system": "isolated guinea pig auricle", "experiment": "Dual bath preparation, effect on left auricle (Example 8a)", "experimental": "The left auricle was dissected out and mounted together with spirally-cut trachea from the same animal in a 100 ml bath in Kreb's solution (37°C.) well aereated with a mixture of oxygen (95%) and carbon dioxide (5%). The auricle was electrically stimulated with square wave pulses from a Techtronic Stimulator (voltage 2-4; duration: 10 m sec; frequency 1 per second). This is, in general, the same procedure described above in Example 5c.\nUsing the dual bath preparation, tests were made of the effect on the trachea and auricle of KWD2025 (of the present invention) and of the known drugs KWD2109 and epinephrine. The drug to be tested was added to the bath in the predetermined amount and allowed to act upon the organs for 10 minutes."}, "[3]": {"test_system": "isolated guinea pig heart", "experiment": "Effect on isolated guinea pig heart, Langendorff (Example 7d)", "experimental": "The isolated guinea pig heart was perfused according to Langendorff. The method used is described by Anden et al. (Acta. Pharmacol. et Toxicol. 21, 247, 1964). Contractions in the heart were recorded by means of a force displacement transducer and aa Grass polygraph Model 7. Epinephrine was used as reference. KWD2109 and KWD2025 were tested on the same preparation. The comparisons of effects were based on dose for 50 percent increase in chronotropic effect and 10 percent increase in inotropic effect."}, "[4]": {"test_system": "isolated guinea pig trachea", "experiment": "Bronchospasmolytic effect in vitro, isolated guinea pig trachea (Example 7a)", "conditions": "Table 1, six experiments", "experimental": "The trachea from a guinea pig was dissected out and spirally out. It was mounted in a water-jacketed bath (37°C.) in Kreb's solution and aerated with oxygen (95%) and carbon dioxide (5%). Pilocarpine (1 μg/ml) was added. The load was about 2 g and the relaxation was recorded by means of a Grass force displacement transducer and a Grass polygraph model 5. The compound KWD2109 was tested on six preparations in which epinephrine was used as reference."}}, "note": "Read-outs that look alike come from different tables or passages of the source."}
{"smiles": "Oc1ccc(C(O)CNC2CCC2)cc1O", "note": "(stereo not drawn) [KWD2109, 1-(3',4'-dihydroxyphenyl)-2-(cyclobutylamino)-ethanol]", "values": [{"measurement": "effect on heart rate at equal bronchospasmolytically effective doses", "setting": "heart rate", "result": "more pronounced effect on the heart rate than did KWD2025"}, {"measurement": "ED50", "setting": "[1]; ip, 0.25 h, i.p., 15 minutes before histamine-aerosol", "result": "0.17 ± 0.02", "unit": "mg/kg"}, {"measurement": "ED50", "setting": "[1]; po, 0.5 h, peroral, 30 minutes before histamine-aerosol", "result": "0.55 ± 0.14", "unit": "mg/kg"}, {"measurement": "protecting activity relative to KWD2025", "setting": "[1]; intraperitoneal", "result": 3.5, "unit": "times"}, {"measurement": "protecting activity relative to KWD2025", "setting": "[1]; oral", "result": 3.1, "unit": "times"}, {"measurement": "bronchospasmolytic activity relative to KWD2025 after intraperitoneal and oral administration", "setting": "[1]; summary b256", "result": "about 3 times"}, {"measurement": "effect on auricle relative to epinephrine at doses with same effect on trachea", "setting": "[2]; equi-effective doses on trachea", "result": "of the same order as that of epinephrine"}, {"measurement": "effect on force of contraction in auricle in concentrations relaxing the trachea", "setting": "[2]; same bath", "result": "increased the force of contraction in the auricle in concentrations where it relaxed the trachea"}, {"measurement": "therapeutic index, bronchospasmolytic effect over effect on the heart (inotropic)", "setting": "[3]; KWD2025 given index 1.0", "result": 0.083}, {"measurement": "effect on force x epinephrine", "setting": "[3]; dose for 10 percent increase in inotropic effect, Table 5", "result": "5.5 ± 3.2"}, {"measurement": "effect on heart rate x epinephrine", "setting": "[3]; dose for 50 percent increase in chronotropic effect, Table 4", "result": "11.8 ± 6.5"}, {"measurement": "bronchospasmolytic effect x epinephrine", "setting": "[4]", "result": "8.6 ± 1.7", "unit": "times"}]}
